Laboratory results reported in the NIST ThermoML archive (doi:10.1021/je020176b).
Numbers after ± are expanded uncertainties.

Experiments:
[1] = Crystal; DTA
[2] = Molar enthalpy of transition or fusion; conditions: Crystal; DSC

## C[C@H]([C@@H](O)c1ccccc1)N(C)C [(+)-N-methylephedrine]
[1]
  Normal melting temperature: 86.60 ± 2 °C
[2]
  Molar enthalpy of transition or fusion: 7.3 ± 0.208 kcal/mol
